Laboratory results reported in patent US10150760B2, “Compounds for use in preparing heterocyclic triazole agonists of the APJ receptor” (AMGEN INC., priority 2016, dated 2018).

Legend:
human APJ receptor = human APJ receptor (Homo sapiens (Human), UniProt P35414); assay: [35S]GTPγS binding assay on membranes from CHO cells stably expressing human APJ receptor; assay type: biochemical; details: read-out: Activity hAPJ SPA EC50 IP
Summary of the method: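 Agonist-driven [35S]GTPγS (0.2 nM) binding was measured over 90 min at room temperature on human APJ-expressing CHO membranes with bead capture, in buffer containing 3 μM GDP, 200 mM NaCl and 5 mM MgCl2 (pH 7.5). Excess unlabelled GTPγS (100 μM) gave nonspecific signal; EC50 from non-linear fits.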

[1] = test system: isolated perfused rat hearts; assay: Ex vivo isolated perfused rat heart assay (Langendorff apparatus), load independent inotropic and lusitropic effects; design: species or system Sprague Dawley rat; details: ex vivo isolated perfused rat heart, percent change over vehicle; for Isolated Heart Assay dP/dtmax (%): contractility; for Isolated Heart Assay dP/dtmin (%): relaxation
Text: Evidence for Load Independent Inotropic Effects with APJ Agonists Using Ex Vivo Assay (Isolated Perfused Rat Hearts)
Naive Sprague Dawley® SD rats (Harlan laboratories (Livermore, Calif. USA)) were anaesthetized and hearts were excised followed by cannulation in the Langendorff apparatus (Harvard apparatus, Holliston, Mass. USA) via aorta. The heart was perfused retrograde with modified oxygenated Krebs-Henseleit buffer (Skrzypiec-Spring M et al., (2007) J. Pharmacol Toxicol Methods 55: 113-126). The pressure of the solution causes the aortic valve to shut and the perfusate is then forced into the ostium and the coronary vessels. This allows the heart to beat for several h. A balloon was inserted into the left ventricle (LV) to measure dP/dtmax (derivative of left ventricular pressure) as an index of cardiac contractility. The APJ agonist was perfused constantly in a dose dependent manner into the heart to examine cardiac contractility.
Example 49.0 was infused at different concentrations and load independent contractility was measured by index of LV dP/dtmax and the results are expressed as a percent change over vehicle. […] Example 49.0 was infused at different concentrations and load independent lusitropic effect (relaxation) was measured by index of LV dP/dtmin where results are expressed as percent change over vehicle. […] Example 60.0 was infused at different concentrations and load independent contractility was measured by index of LV dP/dtmax and the results are expressed as a percent change over vehicle. […] Example 60.0 was infused at different concentrations and load independent lusitropic effect (relaxation) was measured by index of LV dP/dtmin where results are expressed as percent change over vehicle.

Chain of human APJ receptor (P35414 whole entry): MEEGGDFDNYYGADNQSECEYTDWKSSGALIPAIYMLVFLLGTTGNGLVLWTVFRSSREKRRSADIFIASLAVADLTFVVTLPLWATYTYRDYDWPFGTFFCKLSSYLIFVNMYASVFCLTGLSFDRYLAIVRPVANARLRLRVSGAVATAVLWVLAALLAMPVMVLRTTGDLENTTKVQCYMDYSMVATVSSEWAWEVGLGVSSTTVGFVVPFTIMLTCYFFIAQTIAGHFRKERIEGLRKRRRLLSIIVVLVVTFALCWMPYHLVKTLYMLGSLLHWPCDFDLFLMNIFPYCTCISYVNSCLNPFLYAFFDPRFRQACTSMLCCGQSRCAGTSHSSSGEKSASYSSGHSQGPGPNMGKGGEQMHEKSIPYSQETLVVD

## COc1cccc(OC)c1-n1c(NS(=O)(=O)[C@@H](C)[C@H](OC)c2ncc(Cl)cn2)nnc1[C@H]1CCOC1 (single isomer, unassigned) [Example 56.0, (1R,2S)-1-(5-chloropyrimidin-2-yl)-N-(4-(2,6-dimethoxyphenyl)-5-((R)-tetrahydrofuran-3-yl)-4H-1,2,4-triazol-3-yl)-1-methoxypropane-2-sulfonamide or (1R,2S)-1-(5-chloropyrimidin-2-yl)-N-(4-(2,6-dimethoxyphenyl)-5-((S)-tetrahydrofuran-3-yl)-4H-1,2,4-triazol-3-yl)-1-methoxypropane-2-sulfonamide]
Human APJ receptor
  EC50: 19 nM
[1]
  Isolated Heart Assay dP/dtmax (%): 6.8%
  Isolated Heart Assay dP/dtmin (%): 7.1%

## COc1cccc(OC)c1-n1c(NS(=O)(=O)[C@@H](C)[C@H](OC)c2ncc(Cl)cn2)nnc1[C@H]1CCOC1 (single isomer, unassigned) [Example 57.0, (1R,2S)-1-(5-chloropyrimidin-2-yl)-N-(4-(2,6-dimethoxyphenyl)-5-((R)-tetrahydrofuran-3-yl)-4H-1,2,4-triazol-3-yl)-1-methoxypropane-2-sulfonamide or (1R,2S)-1-(5-chloropyrimidin-2-yl)-N-(4-(2,6-dimethoxyphenyl)-5-((S)-tetrahydrofuran-3-yl)-4H-1,2,4-triazol-3-yl)-1-methoxypropane-2-sulfonamide]
Human APJ receptor
  EC50: 21 nM
[1]
  Isolated Heart Assay dP/dtmax (%): No effect
  Isolated Heart Assay dP/dtmin (%): No effect

## COc1cccc(OC)c1-n1c(NS(=O)(=O)[C@@H](C)[C@H](C)c2ncc(Cl)cn2)nnc1[C@H]1CCOC1 (single isomer, unassigned) [Example 61.0, (2S,3R)-3-(5-chloropyrimidin-2-yl)-N-(4-(2,6-dimethoxyphenyl)-5-((R)-tetrahydrofuran-3-yl)-4H-1,2,4-triazol-3-yl)butane-2-sulfonamide or (2S,3R)-3-(5-chloropyrimidin-2-yl)-N-(4-(2,6-dimethoxyphenyl)-5-((S)-tetrahydrofuran-3-yl)-4H-1,2,4-triazol-3-yl)butane-2-sulfonamide]
Human APJ receptor
  EC50: 29 nM
[1]
  Isolated Heart Assay dP/dtmax (%): 3.0%
  Isolated Heart Assay dP/dtmin (%): No effect

## COc1cccc(OC)c1-n1c(NS(=O)(=O)[C@@H](C)[C@H](C)c2ncc(Cl)cn2)nnc1[C@H]1CCCOC1 (single isomer, unassigned) [Example 63.0, (2S,3R)-3-(5-chloropyrimidin-2-yl)-N-(4-(2,6-dimethoxyphenyl)-5-((R)-tetrahydro-2H-pyran-3-yl)-4H-1,2,4-triazol-3-yl)butane-2-sulfonamide or (2S,3R)-3-(5-chloropyrimidin-2-yl)-N-(4-(2,6-dimethoxyphenyl)-5-((S)-tetrahydro-2H-pyran-3-yl)-4H-1,2,4-triazol-3-yl)butane-2-sulfonamide]
Human APJ receptor
  EC50: 1.5 nM
[1]
  Isolated Heart Assay dP/dtmax (%): 14.0%
  Isolated Heart Assay dP/dtmin (%): 11.0%

## COc1cccc(OC)c1-n1c(NS(=O)(=O)[C@@H](C)[C@H](OC)c2ncc(Cl)cn2)nnc1[C@H]1CCCOC1 (single isomer, unassigned) [Example 65.0, (1R,2S)-1-(5-chloropyrimidin-2-yl)-N-(4-(2,6-dimethoxyphenyl)-5-((R)-tetrahydro-2H-pyran-3-yl)-4H-1,2,4-triazol-3-yl)-1-methoxypropane-2-sulfonamide or (1R,2S)-1-(5-chloropyrimidin-2-yl)-N-(4-(2,6-dimethoxyphenyl)-5-((S)-tetrahydro-2H-pyran-3-yl)-4H-1,2,4-triazol-3-yl)-1-methoxypropane-2-sulfonamide]
Human APJ receptor
  EC50: 2.9 nM
[1]
  Isolated Heart Assay dP/dtmax (%): 6.0%
  Isolated Heart Assay dP/dtmin (%): No effect

## COc1cccc(OC)c1-n1c(NS(=O)(=O)[C@@H](C)[C@H](C)c2ncc(C)cn2)nnc1[C@H]1OCC[C@H]1C (single isomer, unassigned) [Example 72.0, (2S,3R)-N-(4-(2,6-dimethoxyphenyl)-5-((2R,3S)-3-methyltetrahydrofuran-2-yl)-4H-1,2,4-triazol-3-yl)-3-(5-methylpyrimidin-2-yl)butane-2-sulfonamide or (2S,3R)-N-(4-(2,6-dimethoxyphenyl)-5-((2S,3R)-3-methyltetrahydrofuran-2-yl)-4H-1,2,4-triazol-3-yl)-3-(5-methylpyrimidin-2-yl)butane-2-sulfonamide]
Human APJ receptor
  EC50: 6.8 nM
[1]
  Isolated Heart Assay dP/dtmax (%): 5.9%
  Isolated Heart Assay dP/dtmin (%): 2.5%

## COc1cccc(OC)c1-n1c(NS(=O)(=O)[C@@H](C)[C@H](OC)c2ncc(Cl)cn2)nnc1[C@H]1OCC[C@H]1C (single isomer, unassigned) [Example 73.0, (1R,2S)-1-(5-chloropyrimidin-2-yl)-N-(4-(2,6-dimethoxyphenyl)-5-((2R,3S)-3-methyltetrahydrofuran-2-yl)-4H-1,2,4-triazol-3-yl)-1-methoxypropane-2-sulfonamide or (1R,2S)-1-(5-chloropyrimidin-2-yl)-N-(4-(2,6-dimethoxyphenyl)-5-((2S,3R)-3-methyltetrahydrofuran-2-yl)-4H-1,2,4-triazol-3-yl)-1-methoxypropane-2-sulfonamide]
Human APJ receptor
  EC50: 1.4 nM
[1]
  Isolated Heart Assay dP/dtmax (%): 2.0%
  Isolated Heart Assay dP/dtmin (%): No effect

## COc1cccc(OC)c1-n1c(NS(=O)(=O)[C@@H](C)[C@H](OC)c2ncc(Cl)cn2)nnc1[C@H]1OCC[C@H]1C (single isomer, unassigned) [Example 74.0, (1R,2S)-1-(5-chloropyrimidin-2-yl)-N-(4-(2,6-dimethoxyphenyl)-5-((2R,3S)-3-methyltetrahydrofuran-2-yl)-4H-1,2,4-triazol-3-yl)-1-methoxypropane-2-sulfonamide or (1R,2S)-1-(5-chloropyrimidin-2-yl)-N-(4-(2,6-dimethoxyphenyl)-5-((2S,3R)-3-methyltetrahydrofuran-2-yl)-4H-1,2,4-triazol-3-yl)-1-methoxypropane-2-sulfonamide]
Human APJ receptor
  EC50: 120 nM
[1]
  Isolated Heart Assay dP/dtmax (%): 5.8%
  Isolated Heart Assay dP/dtmin (%): 2.1%

## COc1cccc(OC)c1-n1c(NS(=O)(=O)[C@@H](C)[C@H](OC)c2ncc(Cl)cn2)nnc1[C@H]1CC[C@@H](C)O1 (single isomer, unassigned) [Example 77.0, (1R,2S)-1-(5-chloropyrimidin-2-yl)-N-(4-(2,6-dimethoxyphenyl)-5-((2S,5S)-5-methyltetrahydrofuran-2-yl)-4H-1,2,4-triazol-3-yl)-1-methoxy-propane-2-sulfonamide or (1R,2S)-1-(5-chloropyrimidin-2-yl)-N-(4-(2,6-dimethoxyphenyl)-5-((2R,5R)-5-methyltetrahydrofuran-2-yl)-4H-1,2,4-triazol-3-yl)-1-methoxypropane-2-sulfonamide]
Human APJ receptor
  EC50: 0.14 nM
[1]
  Isolated Heart Assay dP/dtmax (%): 5.0%
  Isolated Heart Assay dP/dtmin (%): No effect

## COc1cccc(OC)c1-n1c(NS(=O)(=O)[C@@H](C)[C@H](OC)c2ncc(Cl)cn2)nnc1[C@H]1CC[C@@H](C)O1 (single isomer, unassigned) [Example 78.0, (1R,2S)-1-(5-chloropyrimidin-2-yl)-N-(4-(2,6-dimethoxyphenyl)-5-((2S,5S)-5-methyltetrahydrofuran-2-yl)-4H-1,2,4-triazol-3-yl)-1-methoxy-propane-2-sulfonamide or (1R,2S)-1-(5-chloropyrimidin-2-yl)-N-(4-(2,6-dimethoxyphenyl)-5-((2R,5R)-5-methyltetrahydrofuran-2-yl)-4H-1,2,4-triazol-3-yl)-1-methoxypropane-2-sulfonamide]
Human APJ receptor
  EC50: 5 nM
[1]
  Isolated Heart Assay dP/dtmax (%): 7.09%
  Isolated Heart Assay dP/dtmin (%): 8.61%

## COc1ncnc(OC)c1-n1c(NS(=O)(=O)[C@@H](C)[C@H](OC)c2ncc(Cl)cn2)nnc1[C@H]1CCCO1 (single isomer, unassigned) [Example 80.0, (1R,2S)-1-(5-chloropyrimidin-2-yl)-N-(4-(4,6-dimethoxypyrimidin-5-yl)-5-((S)-tetrahydrofuran-2-yl)-4H-1,2,4-triazol-3-yl)-1-methoxypropane-2-sulfonamide or (1R,2S)-1-(5-chloropyrimidin-2-yl)-N-(4-(4,6-dimethoxypyrimidin-5-yl)-5-((R)-tetrahydrofuran-2-yl)-4H-1,2,4-triazol-3-yl)-1-methoxypropane-2-sulfonamide]
Human APJ receptor
  EC50: 9.1 nM
[1]
  Isolated Heart Assay dP/dtmax (%): No effect
  Isolated Heart Assay dP/dtmin (%): No effect

## COc1cccc(OC)c1-n1c(NS(=O)(=O)[C@@H](C)[C@@H](OC(C)C)c2ncc(C)cn2)nnc1[C@H]1CCCO1 (single isomer, unassigned) [Example 97.0, (1S,2S)-N-(4-(2,6-dimethoxyphenyl)-5-((S)-tetrahydrofuran-2-yl)-4H-1,2,4-triazol-3-yl)-1-isopropoxy-1-(5-methylpyrimidin-2-yl)propane-2-sulfonamide or (1S,2S)-N-(4-(2,6-dimethoxyphenyl)-5-((R)-tetrahydrofuran-2-yl)-4H-1,2,4-triazol-3-yl)-1-isopropoxy-1-(5-methyl-pyrimidin-2-yl)propane-2-sulfonamide]
Human APJ receptor
  EC50: 15 nM
[1]
  Isolated Heart Assay dP/dtmax (%): 5.5%
  Isolated Heart Assay dP/dtmin (%): 2.0%
